Results on 22 sequences are retold here after patent US9907857B2, “Peptide having cell membrane penetrating activity” (EWHA UNIVERSITY-INDUSTRY COLLABORATION FOUNDATION, priority 2006, dated 2018).

Where “and” joins values, the source holds several entries; their conditions need not be identical. Identical values can stand only once. Entries after “also recorded” stand apart in the source; their conditions may differ.

Experiment [1] has as its system HeLa cells. Nature of the experiment: Cell penetrating activity of FITC-labelled mutant peptides, mean fluorescence intensity by FACS. It is filed as cell-based. The note with it: for mean fluorescence intensity (MFI) relative to WT, MFI of WT at 10 μM set to 1: peptide at 10 μM; for mean fluorescence intensity (MFI) relative to WT, MFI of WT at 10 μM set to 1 / mean fluorescence intensity (MFI) relative to WT / translocation efficiency compared with another peptide variant (comparator named in the value): 2 hours, FACS; for mean fluorescence intensity (MFI) relative to WT: peptide at 100 μM; for penetrating activity compared with TAT: 100 μM. How it is done: N-terminus of each peptide was labeled with fluorescence dye, FITC and C-terminus was protected. Peptide purity (>95%) was determined by HPLC. Synthesis of the peptides of the present invention was requested to PEPTRON, Inc.
HeLa cell line was propagated in DMEM supplemented with 10% FBS and 100 units/mL penicillin-streptomycin. Cells were grown in a 5% CO2 incubator at 37° C.
HeLa cells were cultured in 6-well plate until they were 70˜80% grown up before a day of the experiment. The cells were washed with DMEM of 37° C. twice, and TCTP-derived peptides synthesized in Example 5-1) were treated to the culture medium in a dose dependent manner (0, 1, 10, 100 μM), then the cells was incubated for 2 hours in an CO2 incubator at 37° C.,
After the incubation, the cells were washed in cool PBS two times and treated with 1 mg/ml trypsin for 15 min at 37° C. to digest peptides attached on cell membrane and washed in PBS twice again. Then, the cells were analyzed by FACS at emission 510 nm and excitation 530 nm for a measurement of FITC of intracellular uptake marker (FIGS. 7, 8 and 9). Intracellular translocation efficiency of mutant peptides, TCTP-CPP#1-35(SEQ ID Nos.: 20-54) was compared to wild type(WT), TCTP(1-10)(SEQ ID No.: 1) and control peptide, TAT(48-57).
In general terms: Flow cytometry measures light scatter and fluorescence of single cells or particles in a stream.

The subject of experiment [2] is HeLa cells. Description: Cell penetrating efficiency of rhodamine-labelled TCTP-derived peptides, microplate fluorescence reader. It is filed as cell-based. To be noted: for cell penetrating activity / translocation efficiency in comparison with TAT (words): HeLa, rhodamine-labelled peptides, overall. On the procedure: N-terminus of each peptides was labeled with fluorescence dye, rhodamine and C-terminus was protected. Peptide purity (>95%) was determined by HPLC. Synthesis of the peptides was requested to PEPTRON, Inc.
HeLa cell line (ATCC) was propagated in DMEM (GIBCO) supplemented with 10% FBS (GIBCO) and 100 units/mL penicillin-streptomycin. Cells were grown in a 5% CO2 incubator at 37° C.
HeLa cells were cultured in 48-well plate until they were 70˜80% grown up before a day of the experiment. The cells were washed with DMEM of 37° C. twice, and TCTP-derived peptides synthesized in Example 2-1) were treated to the culture medium in a dose dependent manner (0, 1, 5, 10, 50, 100 μM), then the cells was incubated for 15 minutes or 2 hours in an CO2 incubator at 37° C.
After the incubation, the cells were washed in cool PBS three times and immediately measured by a microplate fluorescence reader (BIO-TEK instruments, Inc., Vermont, USA) at emission 530 nm and excitation 590 nm for a measurement of rhodamine of intracellular uptake marker. The sensitivity of reader was set at 100 as a basic mode, but was lowered to 75 if the fluorescent signals were too strong. All experiments were conducted in triplet repeats for reproducibility (FIG. 2 and FIG. 3).

For the sequence “CIISRDLISH (mutant peptide based on human sequence; (1)..(10) TCTP-CPP#6) [SEQ ID No.: 25]”, in the experiment with HeLa cells [1], the “mean fluorescence intensity (MFI) relative to WT, MFI of WT at 10 μM set to 1” value was found to be 0.91 times and the “mean fluorescence intensity (MFI) relative to WT” value came to 1.81 times.
As to “FIIFRIAASHKK (mutant peptide based on human sequence; (1)..(12) TCTP-CPP#15) [SEQ ID No.: 34]”, the “translocation efficiency compared with another peptide variant (comparator named in the value)” value in the experiment with HeLa cells [1] was “increased result of translocation efficiency at the concentration of 10 μM and a decreased result at 100 μM, compared to SEQ ID No.: 31”.
Take “IIYRDLISH ((1)..(9) 2-10 amino acid residue of TCTP; listed as Homo sapiens) [SEQ ID No.: 4, Residues of TCTP(2-10)]”: the “intracellular translocation, dependence on concentration” value with HeLa cells [2] (0-100 μM, 15 minutes or 2 hours) is recorded as “not translocated at a concentration of 1 μM to 10 μM”. The “efficiency versus control peptide TAT at low concentration” value in the experiment with HeLa cells [2] (1 μM and 10 μM) is listed as “lower efficiency than control peptide, TAT”. Also, in the experiment with HeLa cells [2] (100 μM, 15 minutes treatment), the “translocation” value was “more efficiently translocated at 100 μM after 15 minutes treatment”. Further, the “cell penetrating activity / translocation efficiency in comparison with TAT (words)” value is reported as “excellent cell penetrating activity in comparison with conventional TAT” in the experiment with HeLa cells [2]; “superior ability than well-known PTD, TAT in their translocation efficiency” in the experiment with HeLa cells [2] (listed as TCTP (2-10)); “more excellent penetrating activity than well-known TAT(47-58) peptide” in the experiment with HeLa cells [2] (listed as TCTP(2-10)). Moreover, the “translocation versus control peptide TAT(48-57)” value in the experiment with HeLa cells [2] (after 2 hours, 100 μM) is on record as “more efficiently translocated at 100 μM than control peptide”.
On to “LIIFAIAASHKK (mutant peptide based on human sequence; (1)..(12) TCTP-CPP#34) [SEQ ID No.: 53]”, for which the “mean fluorescence intensity (MFI) relative to WT, MFI of WT at 10 μM set to 1” value in the experiment on HeLa cells [1] was 8.24 times.
Consider “LIIFRIAASHKK (mutant peptide based on human sequence; (1)..(12) TCTP-CPP#16) [SEQ ID No.: 35]”, for which, in the experiment with HeLa cells [1], the “translocation efficiency compared with another peptide variant (comparator named in the value)” value was “increased result of translocation efficiency at the concentration of 10 μM and a decreased result at 100 μM, compared to SEQ ID No.: 31”; the “mean fluorescence intensity (MFI) relative to WT, MFI of WT at 10 μM set to 1” value came to 29.53 times.
Take “LIIFRILISHHH (mutant peptide based on human sequence; (1)..(12) TCTP-CPP#30) [SEQ ID No.: 49]”: the “cell penetrating activity compared with TAT” value with HeLa cells [1] (concentration not given) is “excellent activity compared with TAT”.
As for “LIIFRILISHKK (mutant peptide based on human sequence; (1)..(12) TCTP-CPP#27) [SEQ ID No.: 46]”, in the experiment on HeLa cells [1], the “translocation efficiency compared with another peptide variant (comparator named in the value)” value is “substitution for leucine caused the decreased penetrating activity” and the “mean fluorescence intensity (MFI) relative to WT, MFI of WT at 10 μM set to 1” value worked out at 3.75 times.
For the sequence “MIIFAIAASHKK (mutant peptide based on human sequence; (1)..(12) TCTP-CPP#26) [SEQ ID No.: 45]”, the “mean fluorescence intensity (MFI) relative to WT, MFI of WT at 10 μM set to 1” value in the experiment with HeLa cells [1] amounted to 11.47 times.
Still for that read-out and setting: the same measure for “MIIFKIAASHKK (mutant peptide based on human sequence; (1)..(12) TCTP-CPP#24) [SEQ ID No.: 43]”: 12.1 times.
As for “MIIFRAAASHKK (mutant peptide based on human sequence; (1)..(12) TCTP-CPP#14) [SEQ ID No.: 33]”, in the experiment with HeLa cells [1], the “translocation efficiency compared with another peptide variant (comparator named in the value)” value is recorded as “similarly increased at 100 μM” and the “mean fluorescence intensity (MFI) relative to WT, MFI of WT at 10 μM set to 1” value is 3.2 times.
For the sequence “MIIFRDLISH (mutant peptide based on human sequence; (1)..(10) TCTP-CPP#3) [SEQ ID No.: 22]”, in the experiment on HeLa cells [1], the “penetrating activity compared with TAT” value is listed as “better penetrating activity than TAT(100 μM)”; the “mean fluorescence intensity (MFI) relative to WT, MFI of WT at 10 μM set to 1” value turned out to be 19.63 times; the “mean fluorescence intensity (MFI) relative to WT” value came to 216.75 times.
“MIIFRIAASHKK (mutant peptide based on human sequence; (1)..(12) TCTP-CPP#12) [SEQ ID No.: 31]”: in the experiment on HeLa cells [1], the “translocation efficiency compared with another peptide variant (comparator named in the value)” value is recorded as “similarly increased at 100 μM”; the “mean fluorescence intensity (MFI) relative to WT, MFI of WT at 10 μM set to 1” value is 29 times and 26.77 times.
Consider “MIIFRIAAYHKK (mutant peptide based on human sequence; (1)..(12) TCTP-CPP#20) [SEQ ID No.: 39]”, for which, in the experiment with HeLa cells [1], the “translocation efficiency compared with another peptide variant (comparator named in the value)” value was “lower than SEQ ID No.: 34 at the concentration of 100 μM” and the “mean fluorescence intensity (MFI) relative to WT, MFI of WT at 10 μM set to 1” value amounted to 25.0 times.
As to “MIIFRILISHKK (mutant peptide based on human sequence; (1)..(12) TCTP-CPP#28) [SEQ ID No.: 47]”, in the experiment on HeLa cells [1], the “mean fluorescence intensity (MFI) relative to WT, MFI of WT at 10 μM set to 1” value was determined as 7.04 times.
As for “MIIYRAEISH (mutant peptide based on human sequence; (1)..(10) TCTP-CPP#10) [SEQ ID No.: 29]”, the “cell penetrating activity compared with WT SEQ ID No.: 1” value with HeLa cells [1] (concentration not given) was “decreased to same degree with alanine substituent”.
Take “MIIYRALISHKK (mutant peptide based on human sequence; (1)..(12) TCTP-CPP#7) [SEQ ID No.: 26]”: in the experiment with HeLa cells [1], the “penetrating activity compared with TAT” value was “better penetrating activity than TAT(100 μM)”; the “mean fluorescence intensity (MFI) relative to WT, MFI of WT at 10 μM set to 1” value is recorded as 6.04 times; the “mean fluorescence intensity (MFI) relative to WT” value came to 144.6 times. Moreover, the “cell penetrating activity compared with WT SEQ ID No.: 1” value with HeLa cells [1] (concentration not given) was “increased cell penetrating activity”.
For “MIIYRDKKSH (mutant peptide based on human sequence; (1)..(10) TCTP-CPP#2) [SEQ ID No.: 21]”, the “cell penetrating activity compared with WT SEQ ID No.: 1” value in the experiment with HeLa cells [1] (concentration not given) was “decreased twice”.
For “MIIYRIAASHKK (mutant peptide based on human sequence; (1)..(12) TCTP-CPP#8) [SEQ ID No.: 27]”, in the experiment on HeLa cells [1], the “penetrating activity compared with TAT” value is “better penetrating activity than TAT(100 μM)”; the “mean fluorescence intensity (MFI) relative to WT, MFI of WT at 10 μM set to 1” value came to 1.73 times; the “mean fluorescence intensity (MFI) relative to WT” value came out at 342.9 times. Also, in the experiment on HeLa cells [1] (concentration not given), the “cell penetrating activity compared with WT SEQ ID No.: 1” value was “increased cell penetrating activity”.
With “WIIFKIAASHKK (mutant peptide based on human sequence; (1)..(12) TCTP-CPP#25) [SEQ ID No.: 44]”, the “mean fluorescence intensity (MFI) relative to WT, MFI of WT at 10 μM set to 1” value in the experiment on HeLa cells [1] is given as 15.04 times.
In the case of “WIIFRAAASHKK (mutant peptide based on human sequence; (1)..(12) TCTP-CPP#18) [SEQ ID No.: 37]”, in the experiment on HeLa cells [1], the “translocation efficiency compared with another peptide variant (comparator named in the value)” value was “lower than SEQ ID No.: 34 at the concentration of 100 μM; also recorded: substitution for tryptophan did not increase translocation efficiency” and the “mean fluorescence intensity (MFI) relative to WT, MFI of WT at 10 μM set to 1” value was 52.0 times.
For the sequence “WIIFRALISHKK (mutant peptide based on human sequence; (1)..(12) TCTP-CPP#19) [SEQ ID No.: 38]”, in the experiment on HeLa cells [1], the “translocation efficiency compared with another peptide variant (comparator named in the value)” value was “lower than SEQ ID No.: 34 at the concentration of 100 μM; also recorded: substitution for tryptophan did not increase translocation efficiency” and the “mean fluorescence intensity (MFI) relative to WT, MFI of WT at 10 μM set to 1” value is 55.6 times.
Turning to “WIIFRIAASHKK (mutant peptide based on human sequence; (1)..(12) TCTP-CPP#17) [SEQ ID No.: 36]”, in the experiment with HeLa cells [1], the “translocation efficiency compared with another peptide variant (comparator named in the value)” value was “stronger than SEQ ID No.: 40(WT-IX:Y) and SEQ ID No.: 42(WT-IX:T) only at 10 μM”; the “mean fluorescence intensity (MFI) relative to WT, MFI of WT at 10 μM set to 1” value is reported as 18.4 times.
